Experimental findings from ChEMBL document CHEMBL5506040, “Design of FK866-Based Degraders for Blocking the Nonenzymatic Functions of Nicotinamide Phosphoribosyltransferase” (J Med Chem, 2024) are described below.

Assay [1] deals with T1, Protein cereblon/Nicotinamide phosphoribosyltransferase (Homo sapiens) (UniProt P43490+Q96SW2). Kind of assay: PROTAC activity at CRBN/NAMPT in human SK-OV-3 cells assessed as induction of intracellular NAMPT degradation at 0.5 uM incubated for 24 hrs by Western blot analysis relative to control. It is filed as cell-based. Background: Immunoblotting shows a protein as a band on a membrane.

A further assay deals with MIA PaCa-2. Briefly: cells. Conditions: Homo sapiens, MIA PaCa-2, 72 h.
In another assay the test system is SK-OV-3. Briefly: cells. Conditions: Homo sapiens, SK-OV-3, 72 h.
Assay [2] deals with T1, Protein cereblon/Nicotinamide phosphoribosyltransferase (Homo sapiens). Kind of assay: PROTAC activity at CRBN/NAMPT in human SK-OV-3 cells assessed as induction of intracellular NAMPT degradation at 5 uM incubated for 24 hrs by Western blot analysis relative to control. It is filed as cell-based.
Assay [3] has the same target. Briefly: PROTAC activity at CRBN/NAMPT in human SK-OV-3 cells assessed as induction of intracellular NAMPT degradation at 0.5 to 5 uM incubated for 24 hrs by Western blot analysis. It is filed as cell-based. As to conditions: dose 0.5-5 µM.
The target of assay [4] is Nicotinamide phosphoribosyltransferase (Mus musculus) (UniProt Q99KQ4). Briefly: Induction of NAMPT degradation in mouse CT26 cells at 0.1 to 5 uM incubated for 24 hrs by Western blot analysis. It is filed as cell-based. Conditions: dose 0.1-5 µM.
A further assay relates to CT26. Kind of assay: cells. Conditions: Mus musculus, CT26, 72 h.

Each structure is given as a SMILES string. Activity calls are given as the source filed them. No cut-off for these calls is given here. Where only a bound is given, the exact number is not on record here.

T1 sequence (P43490 whole entry, looked up): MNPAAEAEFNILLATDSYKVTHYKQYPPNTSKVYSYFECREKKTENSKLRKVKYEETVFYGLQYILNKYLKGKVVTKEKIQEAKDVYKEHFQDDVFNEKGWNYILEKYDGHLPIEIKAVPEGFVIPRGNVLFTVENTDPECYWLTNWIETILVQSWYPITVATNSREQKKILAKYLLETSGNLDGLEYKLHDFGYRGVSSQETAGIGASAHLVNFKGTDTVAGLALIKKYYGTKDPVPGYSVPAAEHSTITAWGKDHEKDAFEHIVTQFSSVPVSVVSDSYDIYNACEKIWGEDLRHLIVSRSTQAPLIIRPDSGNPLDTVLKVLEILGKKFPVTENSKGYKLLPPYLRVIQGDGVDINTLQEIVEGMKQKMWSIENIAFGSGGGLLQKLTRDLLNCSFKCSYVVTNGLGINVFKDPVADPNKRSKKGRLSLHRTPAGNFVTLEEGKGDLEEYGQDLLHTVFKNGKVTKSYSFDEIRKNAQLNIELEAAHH
T1 sequence (Q96SW2 whole entry, looked up): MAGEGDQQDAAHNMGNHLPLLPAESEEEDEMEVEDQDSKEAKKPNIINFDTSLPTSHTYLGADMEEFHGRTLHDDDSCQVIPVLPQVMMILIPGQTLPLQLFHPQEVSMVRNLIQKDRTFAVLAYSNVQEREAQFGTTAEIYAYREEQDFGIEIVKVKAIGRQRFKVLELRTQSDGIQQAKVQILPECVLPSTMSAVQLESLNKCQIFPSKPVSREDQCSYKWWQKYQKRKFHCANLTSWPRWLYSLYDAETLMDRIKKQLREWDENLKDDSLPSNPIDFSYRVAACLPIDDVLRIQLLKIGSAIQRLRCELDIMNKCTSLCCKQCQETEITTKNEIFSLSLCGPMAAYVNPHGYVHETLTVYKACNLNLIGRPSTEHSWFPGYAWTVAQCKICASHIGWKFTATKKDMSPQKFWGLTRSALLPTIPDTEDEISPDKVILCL
Chain of Nicotinamide phosphoribosyltransferase (Mus musculus) (Q99KQ4 whole entry, looked up): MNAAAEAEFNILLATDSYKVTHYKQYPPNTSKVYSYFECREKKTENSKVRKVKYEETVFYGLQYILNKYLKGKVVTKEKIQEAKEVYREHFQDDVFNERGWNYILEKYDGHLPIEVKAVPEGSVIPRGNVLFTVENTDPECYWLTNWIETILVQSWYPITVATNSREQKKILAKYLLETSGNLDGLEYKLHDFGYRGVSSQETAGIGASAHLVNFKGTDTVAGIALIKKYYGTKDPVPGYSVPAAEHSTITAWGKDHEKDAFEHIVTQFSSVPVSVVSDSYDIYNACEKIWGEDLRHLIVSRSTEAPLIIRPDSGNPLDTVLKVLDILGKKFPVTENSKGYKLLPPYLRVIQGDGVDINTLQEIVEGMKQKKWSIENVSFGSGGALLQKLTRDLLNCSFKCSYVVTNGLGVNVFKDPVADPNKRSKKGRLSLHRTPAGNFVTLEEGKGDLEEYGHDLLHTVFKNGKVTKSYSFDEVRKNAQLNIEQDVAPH
Description for CT26: Cytotoxicity against mouse CT26 cells assessed as inhibition of cell growth incubated for 72 hrs by MTT assay
Description for MIA PaCa-2: Cytotoxicity against human MIA PaCa-2 cells assessed as inhibition of cell growth incubated for 72 hrs by MTT assay
Description for SK-OV-3: Cytotoxicity against human SK-OV-3 cells assessed as inhibition of cell growth incubated for 72 hrs by MTT assay

In the case of `O=C(/C=C/c1cccnc1)NCCCCC1CCN(C(=O)c2ccc(C(=O)NCCNc3cccc4c3C(=O)N(C3CCC(=O)NC3=O)C4=O)cc2)CC1` (stereo not given), the figures for the Activity in assay [1] and in assay [2] were 0% and 11%, respectively. For the same molecule, the half-maximal inhibitory concentration (IC50) in the assay with MIA PaCa-2 and in the assay on SK-OV-3 was 4 nM each time.

As to `O=C(/C=C/c1cccnc1)NCCCCC1CCN(C(=O)c2ccc(C(=O)N3CCC(CC(=O)Nc4cccc5c4C(=O)N(C4CCC(=O)NC4=O)C5=O)CC3)cc2)CC1` (stereo not given), the IC50 in the assay with MIA PaCa-2 and in the assay with SK-OV-3 was 4 nM in each case. In addition, the outcome in assay [3] was inactive.

With `O=C(/C=C/c1cccnc1)NCCCCC1CCN(C(=O)c2ccc(C(=O)NCc3cn(CCOCCOCCOCCOCCNc4cccc5c4C(=O)N(C4CCC(=O)NC4=O)C5=O)nn3)cc2)CC1` (stereo not given), the Activity in assay [1] came out at 40%; in assay [2] it was 27%. For the same molecule, the IC50 in the assay with MIA PaCa-2 and with SK-OV-3 was 4 nM each time.

For `O=C(/C=C/c1cccnc1)NCCCCC1CCN(C(=O)c2ccc(NC(=O)CCCCN3CCN(c4cccc5c4C(=O)N(C4CCC(=O)NC4=O)C5=O)CC3)cc2)CC1` (stereo not given), the IC50 in the assay with MIA PaCa-2 and in the assay on SK-OV-3 was 4 nM in each case. Further, the result in assay [3] was inactive.

Regarding `O=C(/C=C/c1cccnc1)NCCCCC1CCN(C(=O)c2ccc(NC(=O)CCCN3CCN(c4cccc5c4C(=O)N(C4CCC(=O)NC4=O)C5=O)CC3)cc2)CC1` (stereo not given), the IC50 in the assay with MIA PaCa-2 and in the assay with SK-OV-3 was 4 nM each time. The result in assay [3] was inactive.

Take `O=C(/C=C/c1cccnc1)NCCCCC1CCN(C(=O)c2ccc(NC(=O)COCCOCCNc3cccc4c3C(=O)N(C3CCC(=O)NC3=O)C4=O)cc2)CC1` (stereo not given): the Activity in assay [1] and in assay [2] was 0% in each case. In addition, the IC50 in the assay with MIA PaCa-2 and in the assay with SK-OV-3 was 4 nM in each case.

For the molecule `O=C(/C=C/c1cccnc1)NCCCCC1CCN(C(=O)c2ccc(C(=O)NCc3cn(CCOCCOCCOCCNc4cccc5c4C(=O)N(C4CCC(=O)NC4=O)C5=O)nn3)cc2)CC1` (stereo not given), the Activity amounted to 34% in assay [1] and 20% in assay [2]. Moreover, the IC50 in the assay on MIA PaCa-2 and in the assay with SK-OV-3 was 4 nM each time.

Turning to `O=C(/C=C/c1cccnc1)NCCCCC1CCN(C(=O)c2ccc(NC(=O)COCCOCCOCCNc3cccc4c3C(=O)N(C3CCC(=O)NC3=O)C4=O)cc2)CC1` (stereo not given), the Activity in assay [1] and in assay [2] was 0% in each case. Also, the IC50 in the assay with MIA PaCa-2 and in the assay on SK-OV-3 was 4 nM each time.

As for `O=C(/C=C/c1cccnc1)NCCCCC1CCN(C(=O)c2ccc(NC(=O)CCOCCOCCOCCOCCNc3cccc4c3C(=O)N(C3CCC(=O)NC3=O)C4=O)cc2)CC1` (stereo not given), the Activity in assay [1] and in assay [2] was 0% in each case. Besides, the IC50 in the assay with MIA PaCa-2 and in the assay on SK-OV-3 was 4 nM throughout.

With `O=C(/C=C/c1cccnc1)NCCCCC1CCN(C(=O)c2ccc(C(=O)N3CCC(C(=O)N4CCN(c5cccc6c5C(=O)N(C5CCC(=O)NC5=O)C6=O)CC4)CC3)cc2)CC1` (stereo not given), the IC50 in the assay on MIA PaCa-2 and in the assay on SK-OV-3 was 4 nM in each case. In addition, the outcome in assay [3] was inactive.

Regarding `Cc1ncsc1-c1ccc([C@H](C)NC(=O)[C@H]2C[C@H](O)CN2C(=O)[C@@H](NC(=O)COCCOCCOCCNC(=O)c2ccc(C(=O)N3CCC(CCCCNC(=O)/C=C/c4cccnc4)CC3)cc2)C(C)(C)C)cc1`, the outcome in assay [4] was inactive.

On to `O=C(/C=C/c1cccnc1)NCCCCC1CCN(C(=O)c2ccc(C(=O)NCc3cn(CCOCCNc4cccc5c4C(=O)N(C4CCC(=O)NC4=O)C5=O)nn3)cc2)CC1` (stereo not given), for which the Activity in assay [1] was 25%; in assay [2] it was 30%. For the same molecule, the IC50 with MIA PaCa-2 and with SK-OV-3 was 4 nM throughout.

In the case of `O=C(/C=C/c1cccnc1)NCCCCC1CCN(C(=O)c2ccc(C(=O)N3CCC4(CC3)CN(c3cccc5c3C(=O)N(C3CCC(=O)NC3=O)C5=O)C4)cc2)CC1` (stereo not given), the IC50 in the assay on MIA PaCa-2 and with SK-OV-3 was 4 nM throughout. For the same molecule, the result in assay [3] was inactive.

Take `O=C(/C=C/c1cccnc1)NCCCCC1CCN(C(=O)c2ccc(C(=O)N3CCN(Cc4ccc(CNc5cccc6c5C(=O)N(C5CCC(=O)NC5=O)C6=O)cc4)CC3)cc2)CC1` (stereo not given): the IC50 in the assay with MIA PaCa-2 and in the assay with SK-OV-3 was 4 nM throughout. Further, the outcome in assay [3] was inactive.

As for `O=C(/C=C/c1cccnc1)NCCCCC1CCN(C(=O)c2ccc(C(=O)N3CCC(C(=O)Nc4cccc5c4C(=O)N(C4CCC(=O)NC4=O)C5=O)CC3)cc2)CC1` (stereo not given), the IC50 in the assay with MIA PaCa-2 and in the assay on SK-OV-3 was 4 nM each time. Moreover, the result in assay [3] was inactive.

With `O=C(/C=C/c1cccnc1)NCCCCC1CCN(C(=O)c2ccc(C(=O)NCc3cn(CCOCCOCCOCCOCCOCCNc4cccc5c4C(=O)N(C4CCC(=O)NC4=O)C5=O)nn3)cc2)CC1` (stereo not given), the Activity worked out at 51% in assay [1] and 52% in assay [2]. In addition, the concentration for half-maximal inhibition (IC50) with MIA PaCa-2 and with SK-OV-3 was 4 nM each time.

In the case of `O=C(/C=C/c1cccnc1)NCCCCC1CCN(C(=O)c2ccc(C(=O)N3CC4(CCN(c5cccc6c5C(=O)N(C5CCC(=O)NC5=O)C6=O)CC4)C3)cc2)CC1` (stereo not given), the IC50 in the assay on MIA PaCa-2 and with SK-OV-3 was 4 nM each time. Also, in assay [3], the outcome was inactive.

In the case of `O=C(/C=C/c1cccnc1)NCCCCC1CCN(C(=O)c2ccc(C(=O)NCCCCCNc3cccc4c3C(=O)N(C3CCC(=O)NC3=O)C4=O)cc2)CC1` (stereo not given), the Activity in assay [1] and in assay [2] was 0% throughout. Further, the IC50 in the assay with MIA PaCa-2 and with SK-OV-3 was 4 nM throughout.

As for `O=C(/C=C/c1cccnc1)NCCCCC1CCN(C(=O)c2ccc(C(=O)N3CCC4(CCN(c5cccc6c5C(=O)N(C5CCC(=O)NC5=O)C6=O)C4)C3)cc2)CC1` (stereo not given), the IC50 in the assay with MIA PaCa-2 and with SK-OV-3 was 4 nM in each case. The result in assay [3] was inactive.

Regarding `O=C(/C=C/c1cccnc1)NCCCCC1CCN(C(=O)c2ccc(NC(=O)COCCOCCOCCOCCNc3cccc4c3C(=O)N(C3CCC(=O)NC3=O)C4=O)cc2)CC1` (stereo not given), the Activity in assay [1] and in assay [2] was 0% in each case. Besides, the IC50 in the assay with MIA PaCa-2 and in the assay on SK-OV-3 was 4 nM each time.

Take `O=C(/C=C/c1cccnc1)NCCCCC1CCN(C(=O)c2ccc(NC(=O)c3ccc(CN4CCN(c5cccc6c5C(=O)N(C5CCC(=O)NC5=O)C6=O)CC4)cc3)cc2)CC1` (stereo not given): the IC50 in the assay on MIA PaCa-2 and in the assay on SK-OV-3 was 4 nM throughout. Moreover, the result in assay [3] was inactive.

As to `O=C(/C=C/c1cccnc1)NCCCCC1CCN(C(=O)c2ccc(NC(=O)CN3CCN(c4cccc5c4C(=O)N(C4CCC(=O)NC4=O)C5=O)CC3)cc2)CC1` (stereo not given), the IC50 in the assay on MIA PaCa-2 and in the assay with SK-OV-3 was 4 nM each time. Moreover, the outcome in assay [3] was inactive.

Consider `O=C(/C=C/c1cccnc1)NCCCCC1CCN(C(=O)c2ccc(C(=O)N3CCC4(CC3)CC(C(=O)N3CCN(c5cccc6c5C(=O)N(C5CCC(=O)NC5=O)C6=O)CC3)C4)cc2)CC1` (stereo not given), for which the IC50 with MIA PaCa-2 and in the assay with SK-OV-3 was 4 nM each time. Also, the result in assay [3] was inactive.

For the molecule `Cc1ncsc1-c1ccc([C@@H](C)NC(=O)[C@@H]2C[C@@H](O)CN2C(=O)[C@@H](NC(=O)COCCOCCOCCOCCNC(=O)c2ccc(CN3CCN(S(=O)(=O)c4ccc(NC(=S)NCc5cccnc5)cc4)CC3)cc2)C(C)(C)C)cc1`, the IC50 in the assay with CT26 was more than 100000 nM; with SK-OV-3, 9930 nM.

As for `O=C(/C=C/c1cccnc1)NCCCCC1CCN(C(=O)c2ccc(C(=O)NCCCCCCNc3cccc4c3C(=O)N(C3CCC(=O)NC3=O)C4=O)cc2)CC1` (stereo not given), the Activity in assay [1] and in assay [2] was 0% in each case. The IC50 in the assay on MIA PaCa-2 and in the assay on SK-OV-3 was 4 nM each time.

For `O=C(/C=C/c1cccnc1)NCCCCC1CCN(C(=O)c2ccc(C(=O)N3CCN(c4cccc5c4C(=O)N(C4CCC(=O)NC4=O)C5=O)CC3)cc2)CC1` (stereo not given), the IC50 in the assay on MIA PaCa-2 and with SK-OV-3 was 4 nM throughout. The outcome in assay [3] was inactive.

As to `O=C(/C=C/c1cccnc1)NCCCCC1CCN(C(=O)c2ccc(C(=O)NCCCCCc3cccc4c3CN(C3CCC(=O)NC3=O)C4=O)cc2)CC1` (stereo not given), the Activity in assay [1] and in assay [2] was 0% each time. In addition, the IC50 in the assay on MIA PaCa-2 and with SK-OV-3 was 4 nM throughout.

As to `O=C(/C=C/c1cccnc1)NCCCCC1CCN(C(=O)c2ccc(C(=O)N3CCC4(C3)CN(c3cccc5c3C(=O)N(C3CCC(=O)NC3=O)C5=O)C4)cc2)CC1` (stereo not given), the IC50 in the assay with MIA PaCa-2 and in the assay with SK-OV-3 was 4 nM each time. The outcome in assay [3] was inactive.

Take `O=C(/C=C/c1cccnc1)NCCCCC1CCN(C(=O)c2ccc(C(=O)NCCCCNc3cccc4c3C(=O)N(C3CCC(=O)NC3=O)C4=O)cc2)CC1` (stereo not given): the Activity worked out at 0% in assay [1] and 22% in assay [2]. Further, the IC50 in the assay with MIA PaCa-2 and in the assay with SK-OV-3 was 4 nM throughout.

With `O=C(/C=C/c1cccnc1)NCCCCC1CCN(C(=O)c2ccc(C(=O)NCc3cn(CCOCCOCCNc4cccc5c4C(=O)N(C4CCC(=O)NC4=O)C5=O)nn3)cc2)CC1` (stereo not given), the Activity in assay [1] and in assay [2] was 0% in each case. Further, the IC50 with MIA PaCa-2 and with SK-OV-3 was 4 nM throughout.

Take `O=C(/C=C/c1cccnc1)NCCCCC1CCN(C(=O)c2ccc(C(=O)NCCCNc3cccc4c3C(=O)N(C3CCC(=O)NC3=O)C4=O)cc2)CC1` (stereo not given): the figures for the Activity in assay [1] and in assay [2] were 29% and 0%, respectively. In addition, the IC50 with MIA PaCa-2 and in the assay on SK-OV-3 was 4 nM each time.

One may read the IC50 as the point on the concentration scale where inhibition reaches its midpoint. The low end stands for greater potency in that assay, the high end for weaker potency in that assay.
